Values of other authors as cited in publication PMC2716802 (Structure (London, England : 1993), 2008).
No end group written: not given here.

Biological target: BoNT/A LC (Clostridium botulinum, UniProt P0DPI0)
Sequence (P0DPI0 2-448 limits assumed): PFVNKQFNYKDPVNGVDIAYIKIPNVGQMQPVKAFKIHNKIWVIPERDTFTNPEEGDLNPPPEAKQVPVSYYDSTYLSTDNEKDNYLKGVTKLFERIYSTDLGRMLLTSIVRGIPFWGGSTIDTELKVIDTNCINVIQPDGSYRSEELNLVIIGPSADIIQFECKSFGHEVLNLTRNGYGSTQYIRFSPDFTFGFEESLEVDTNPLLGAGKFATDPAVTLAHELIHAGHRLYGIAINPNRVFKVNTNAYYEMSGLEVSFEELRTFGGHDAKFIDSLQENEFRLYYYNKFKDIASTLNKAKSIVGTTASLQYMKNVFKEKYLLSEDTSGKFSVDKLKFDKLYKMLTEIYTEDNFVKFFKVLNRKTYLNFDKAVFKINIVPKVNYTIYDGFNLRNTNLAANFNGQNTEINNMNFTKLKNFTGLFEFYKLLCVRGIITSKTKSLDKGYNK

Ac-CRATKML
Ki: 1900 nM
